In ChEMBL document CHEMBL5625244, “Synthesis of cannabidiol-based compounds as ACE2 inhibitors with potential application in the treatment of COVID-19” (Eur J Med Chem, 2023):
Calls of active or inactive are those of the source. The rule behind the calls is not given here.

Legend:
[1] = target: T1, Angiotensin-converting enzyme 2 (Homo sapiens, UniProt Q9BYF1); test: Inhibition of human ACE2 using Mca-APK(Dnp) as substrate incubated for 30 mins by fluorometer analysis
Target sequence in this assay (Q9BYF1 whole entry): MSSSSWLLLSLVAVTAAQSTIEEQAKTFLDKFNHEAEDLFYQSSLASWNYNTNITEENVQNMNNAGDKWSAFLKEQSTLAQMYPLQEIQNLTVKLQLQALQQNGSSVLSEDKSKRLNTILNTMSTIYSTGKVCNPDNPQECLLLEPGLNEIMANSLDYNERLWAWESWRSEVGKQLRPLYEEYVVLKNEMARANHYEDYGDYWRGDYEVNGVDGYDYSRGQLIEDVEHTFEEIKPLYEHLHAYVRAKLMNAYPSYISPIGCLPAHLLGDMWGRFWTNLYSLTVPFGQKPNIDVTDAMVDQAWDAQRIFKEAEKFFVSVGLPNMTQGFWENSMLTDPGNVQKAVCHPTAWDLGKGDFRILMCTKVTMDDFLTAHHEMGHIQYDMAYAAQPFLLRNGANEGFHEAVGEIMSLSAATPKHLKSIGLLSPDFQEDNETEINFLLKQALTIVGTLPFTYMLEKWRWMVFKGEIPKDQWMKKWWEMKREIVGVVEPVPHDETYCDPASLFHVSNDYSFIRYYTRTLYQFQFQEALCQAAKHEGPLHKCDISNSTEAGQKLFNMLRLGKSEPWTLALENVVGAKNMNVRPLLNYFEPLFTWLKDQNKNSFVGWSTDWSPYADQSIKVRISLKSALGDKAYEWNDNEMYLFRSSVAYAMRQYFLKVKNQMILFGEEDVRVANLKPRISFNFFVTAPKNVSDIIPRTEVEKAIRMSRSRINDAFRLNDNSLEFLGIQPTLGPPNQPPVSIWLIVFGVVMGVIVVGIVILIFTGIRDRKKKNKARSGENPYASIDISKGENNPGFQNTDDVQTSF

[2] = Cytotoxicity against African green monkey Vero cells assessed as reduction in cell viability upto 100 uM incubated for 48 hrs by Alamar blue assay; assay type: toxicity, cell-based; conditions: chlorocebus sabaeus
SARS-CoV-2 = test: Antiviral activity against SARS-CoV-2 Wuhan infected in african green monkey Vero cells pre-infected for 1 hr followed by compound addition and measured after 48 hrs by RT-qPCR analysis; assay type: functional, organism-based; conditions: Severe acute respiratory syndrome coronavirus 2, Wuhan
[3] = target: T1, Angiotensin-converting enzyme 2; test: Inhibition of human ACE2 using Mca-APK(Dnp) as substrate at 10 nM incubated for 30 mins by fluorometer analysis
Target sequence in this assay (Q9BYF1 18-805 limits assumed): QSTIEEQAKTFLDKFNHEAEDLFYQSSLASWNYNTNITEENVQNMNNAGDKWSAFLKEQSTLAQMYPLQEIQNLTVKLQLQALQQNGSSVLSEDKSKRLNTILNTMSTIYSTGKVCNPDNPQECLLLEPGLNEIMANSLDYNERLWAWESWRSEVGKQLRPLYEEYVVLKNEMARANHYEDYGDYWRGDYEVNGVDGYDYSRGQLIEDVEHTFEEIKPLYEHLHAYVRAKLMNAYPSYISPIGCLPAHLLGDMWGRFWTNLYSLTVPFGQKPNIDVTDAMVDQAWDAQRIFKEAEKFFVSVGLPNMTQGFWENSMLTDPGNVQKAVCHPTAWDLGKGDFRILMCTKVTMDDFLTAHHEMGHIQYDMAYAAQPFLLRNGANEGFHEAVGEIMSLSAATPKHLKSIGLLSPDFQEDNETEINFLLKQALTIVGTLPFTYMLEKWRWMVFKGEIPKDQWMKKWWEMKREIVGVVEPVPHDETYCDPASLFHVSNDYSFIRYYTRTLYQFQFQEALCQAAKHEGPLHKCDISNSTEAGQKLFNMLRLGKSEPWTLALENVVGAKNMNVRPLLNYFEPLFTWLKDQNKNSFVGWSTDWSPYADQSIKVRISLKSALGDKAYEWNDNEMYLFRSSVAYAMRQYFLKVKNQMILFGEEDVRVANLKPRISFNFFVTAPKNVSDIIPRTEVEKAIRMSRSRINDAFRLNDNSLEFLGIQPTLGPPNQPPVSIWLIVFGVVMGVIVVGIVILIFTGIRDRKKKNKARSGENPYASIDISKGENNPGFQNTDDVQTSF

Row | SMILES | IC50 [1] [nM] | Activity [2] | IC50 (SARS-CoV-2) [nM] | inhibition [3]
1 | C=C(C)[C@@H]1CCC(C)=C[C@H]1c1c(O)cc(CCCCC)cc1O [CANNABIDIOL] | > 30000 | Non-Toxic | 72800 | 
2 | CCCCCc1cc(O)c([C@@H]2C=C(C)CC[C@H]2[C@@H](C)CCN2CCC(C)CC2)c(O)c1 | > 30000 | Non-Toxic | 6500 | 
3 | CCCCCc1cc(OC(C)=O)c([C@@H]2C=C(C)CC[C@H]2[C@@H](C)CC=O)c(OC(C)=O)c1 | 40 |  |  | 
4 | C=C(C)[C@@H]1CC=C(C)C(c2c(O)cc(CCCCC)cc2O)C1 (stereo partly specified) |  | Non-Toxic | 6300 | 
5 | CCCCCc1cc(O)c([C@@H]2C=C(C)CC[C@H]2C(C)C)c(O)c1 | 1370 | Non-Toxic | 1900 | 
6 | C=C(C)[C@@H]1CCC(C)=C[C@H]1c1c(OCC)cc(CCCCC)cc1OCC | 180 | Non-Toxic | 9400 | 
7 | C=C(C)[C@@H]1CCC(C)=C[C@H]1c1c(OCC(=O)OCC)cc(CCCCC)cc1OCC(=O)OCC | 370 |  |  | 
8 | C=C(C)[C@@H]1CCC(C)=C[C@H]1c1c(OCCCC)cc(CCCCC)cc1OCCCC | 170 |  |  | 
9 | CCCCCc1cc(O)c(C2C=C(C)CC(C)(C)C2)c(O)c1 (stereo unspecified) | 3960 |  |  | 
10 | CC(=O)NCC(=O)N[C@@H](CC(=O)O)C(=O)N[C@@H](Cc1ccc(O)cc1)C(=O)N[C@@H](CO)C(=O)N[C@@H](Cc1cnc[nH]1)C(=O)N[C@H]1CSSC[C@@H](C(=O)N[C@H](C(=O)N[C@@H](Cc2ccc(O)cc2)C(=O)N2CCC[C@H]2C(=O)N[C@@H](CC(=O)O)C(=O)N2CCC[C@H]2C(=O)N[C@@H](CCC(=O)O)C(=O)NCC(=O)NCC(=O)NCC(N)=O)[C@@H](C)O)NC(=O)[C@H](CCCCN)NC(=O)[C@H](Cc2c[nH]c3ccccc23)NC(=O)[C@H](Cc2c[nH]c3ccccc23)NC(=O)[C@@H]2CCCN2C(=O)[C@H](Cc2ccc(O)cc2)NC(=O)[C@H](Cc2ccc(O)cc2)NC(=O)[C@H](CCCNC(=N)N)NC(=O)[C@H](CC(C)C)NC(=O)[C@@H]2CCCN2C(=O)[C@H](CO)NC1=O | 8300 |  |  | 
11 | CCCCCc1cc(O)cc2c1C1CC(C)(C)CC(C)(C1)O2 (stereo unspecified) | 10 |  |  | Active
